Numbers after ± are expanded uncertainties.
Assay: xn = mol fraction of the nth substance listed
Conditions: 101 kPa, Liquid; for speed of sound: Pulse-echo method; for mass density: Vibrating tube method

ClC(Cl)(Cl)Br [bromotrichloromethane] + BrCBr
Conditions | mass density, 293.15 K [kg/m3] | mass density, 298.15 K [kg/m3] | speed of sound, 293.15 K [m/s] | speed of sound, 298.15 K [m/s] | speed of sound, 303.15 K [m/s]
x1 = 0.0506 | 2455.57 ± 1.8 | 2442.67 ± 1.8 | 957 ± 1.2 | 944.4 ± 1.2 | 931.7 ± 1.2
x1 = 0.0993 | 2424.17 ± 1.8 | 2411.4 ± 1.7 | 953 ± 1.2 | 940.3 ± 1.2 | 927.6 ± 1.2
x1 = 0.1491 | 2392.98 ± 1.7 | 2380.34 ± 1.7 | 948.9 ± 1.2 | 936.2 ± 1.2 | 923.4 ± 1.2
x1 = 0.1991 | 2363.17 ± 1.7 | 2350.66 ± 1.7 | 945.3 ± 1.2 | 932.6 ± 1.2 | 919.8 ± 1.2
x1 = 0.2473 | 2335.59 ± 1.6 | 2323.21 ± 1.6 | 942.1 ± 1.2 | 929.3 ± 1.2 | 916.5 ± 1.2
x1 = 0.2986 | 2307.34 ± 1.6 | 2295.08 ± 1.6 | 939.1 ± 1.2 | 926.2 ± 1.2 | 913.2 ± 1.2
x1 = 0.3465 | 2281.89 ± 1.6 | 2269.75 ± 1.6 | 936.3 ± 1.2 | 923.3 ± 1.2 | 910.5 ± 1.2
x1 = 0.3979 | 2255.64 ± 1.5 | 2243.64 ± 1.5 | 933.6 ± 1.2 | 920.7 ± 1.2 | 907.7 ± 1.2
x1 = 0.4468 | 2231.41 ± 1.5 | 2219.49 ± 1.5 | 931.3 ± 1.2 | 918.3 ± 1.2 | 905.3 ± 1.2
x1 = 0.4967 | 2207.74 ± 1.5 | 2195.91 ± 1.4 | 929.1 ± 1.2 | 916.1 ± 1.2 | 903.1 ± 1.2
x1 = 0.5462 | 2185.38 ± 1.4 | 2173.66 ± 1.4 | 927.2 ± 1.2 | 914.1 ± 1.2 | 901.1 ± 1.2
x1 = 0.5975 | 2162.89 ± 1.4 | 2151.29 ± 1.4 | 925.3 ± 1.2 | 912.2 ± 1.2 | 899.1 ± 1.2
x1 = 0.6479 | 2141.49 ± 1.4 | 2130.01 ± 1.4 | 923.7 ± 1.2 | 910.6 ± 1.2 | 897.4 ± 1.2
x1 = 0.6947 | 2122.35 ± 1.4 | 2110.96 ± 1.4 | 922.4 ± 1.2 | 909.2 ± 1.2 | 896 ± 1.2
x1 = 0.7469 | 2101.9 ± 1.3 | 2090.59 ± 1.3 | 921 ± 1.2 | 907.7 ± 1.2 | 894.5 ± 1.2
x1 = 0.7959 | 2083.33 ± 1.3 | 2072.08 ± 1.3 | 919.9 ± 1.2 | 906.6 ± 1.2 | 893.4 ± 1.2
x1 = 0.8494 | 2063.55 ± 1.3 | 2052.39 ± 1.3 | 918.8 ± 1.2 | 905.5 ± 1.2 | 892.2 ± 1.2
x1 = 0.898 | 2046.2 ± 1.3 | 2035.13 ± 1.3 | 918 ± 1.2 | 904.6 ± 1.2 | 891.3 ± 1.2
x1 = 0.9469 | 2029.71 ± 1.2 | 2018.65 ± 1.2 | 917.4 ± 1.2 | 904 ± 1.2 | 890.6 ± 1.2
x1 = 1 | 2013.06 ± 1.2 | 2002.14 ± 1.2 | 917.1 ± 1.2 | 903.6 ± 1.2 | 890.2 ± 1.2
